Assay results as given in EPA's CvTdb concentration-time database.

What was measured:
Assay in all cases: concentration in plasma after dosing
Rat [1] = conditions: 11 min; dosed: Glyoxylic acid monohydrate; 50 mg/kg; iv; Female; Harlan Sprague Dawley
Rat [2] = conditions: dosed: Glyoxylic acid monohydrate, 50 mg/kg, iv, Female, Harlan Sprague Dawley
Rat [3] = conditions: dosed: Glyoxylic acid monohydrate, 50 mg/kg, iv, Female, Harlan Sprague Dawley; remark: listed apart in the source
Rat [4] = conditions: 14 min; dosed: Glyoxylic acid monohydrate; 50 mg/kg; iv; Male; Harlan Sprague Dawley
Rat [5] = conditions: dosed: Glyoxylic acid monohydrate, 50 mg/kg, iv, Female, Harlan Sprague Dawley; remark: listed apart in the source
Rat [6] = conditions: dosed: Glyoxylic acid monohydrate, 50 mg/kg, iv, Male, Harlan Sprague Dawley
Rat [7] = conditions: dosed: Glyoxylic acid monohydrate, 50 mg/kg, iv, Female, Harlan Sprague Dawley; remark: listed apart in the source
Rat [8] = conditions: dosed: Glyoxylic acid monohydrate, 50 mg/kg, iv, Female, Harlan Sprague Dawley; remark: listed apart in the source
Rat [9] = conditions: dosed: Glyoxylic acid monohydrate, 50 mg/kg, iv, Female, Harlan Sprague Dawley; remark: listed apart in the source
Rat [10] = conditions: dosed: Glyoxylic acid monohydrate, 50 mg/kg, iv, Female, Harlan Sprague Dawley; remark: listed apart in the source
Rat [11] = conditions: dosed: Glyoxylic acid monohydrate, 50 mg/kg, iv, Male, Harlan Sprague Dawley; remark: listed apart in the source
Rat [12] = conditions: dosed: Glyoxylic acid monohydrate, 50 mg/kg, iv, Female, Harlan Sprague Dawley; remark: listed apart in the source
Rat [13] = conditions: dosed: Glyoxylic acid monohydrate, 50 mg/kg, iv, Male, Harlan Sprague Dawley; remark: listed apart in the source
Rat [14] = conditions: dosed: Glyoxylic acid monohydrate, 50 mg/kg, iv, Female, Harlan Sprague Dawley; remark: listed apart in the source
Rat [15] = conditions: dosed: Glyoxylic acid monohydrate, 50 mg/kg, iv, Female, Harlan Sprague Dawley; remark: listed apart in the source
Rat [16] = conditions: dosed: Glyoxylic acid monohydrate, 50 mg/kg, iv, Female, Harlan Sprague Dawley; remark: listed apart in the source
Rat [17] = conditions: dosed: Glyoxylic acid monohydrate, 50 mg/kg, iv, Harlan Sprague Dawley
Rat [18] = conditions: dosed: Glyoxylic acid monohydrate, 50 mg/kg, iv, Female, Harlan Sprague Dawley; remark: listed apart in the source
Rat [19] = conditions: 14 min; dosed: Glyoxylic acid monohydrate; 50 mg/kg; iv; Female; Harlan Sprague Dawley
Rat [20] = conditions: 11 min; dosed: Glyoxylic acid monohydrate; 50 mg/kg; iv; Female; Harlan Sprague Dawley; remark: listed apart in the source

O.O=CC(=O)O [Glyoxylic acid monohydrate]
Conditions | concentration in plasma [ng/mL]
Rat [1] | 9560
Rat [4] | 7680
Rat [19] | 8370
Rat [20] | 11600

Conditions | concentration in plasma [ng/mL]
Rat [2], 0.5 h | 3380
Rat [2], 11 min | 12000
Rat [3], 0.5 h | 2690
Rat [3], 11 min | 10700
Rat [5], 5 min | 27700
Rat [5], 22 min | 3860
Rat [6], 0.3 h | 5910
Rat [6], 2 min | 92900
Rat [7], 0.3 h | 3380
Rat [7], 2 min | 70100
Rat [8], 5 min | 28600
Rat [8], 22 min | 3840
Rat [9], 2 min | 99000
Rat [9], 14 min | 6240
Rat [10], 0.5 h | 2850
Rat [10], 8 min | 15800
Rat [11], 2 min | 66100
Rat [11], 14 min | 5250
Rat [12], 0.5 h | 3360
Rat [12], 8 min | 14700
Rat [13], 0.3 h | 6320
Rat [13], 5 min | 34200
Rat [14], 0.5 h | 2820
Rat [14], 8 min | 16900
Rat [15], 0.3 h | 5270
Rat [15], 5 min | 26200
Rat [16], 8 min | 15800
Rat [16], 22 min | 3900
Rat [18], 8 min | 17400
Rat [18], 22 min | 4560

concentration in plasma [ng/mL], Rat [17]
Conditions | 0.3 h | 2 min | 5 min | 8 min | 11 min | 14 min | 22 min
Female | 4380 | 102000 | 24000 | 10100 | 11300 | 8040 | 3600
Male | 4850 | 63200 | 29800 | – | 9000 | 8390 | 4090
